# Values of other authors, collected in patent US7648957B2, “Nutritional and therapeutic composition of an insulin sensitizer and a peptide fraction” (DSM IP Assets B.V., priority 2002, dated 2010).
# Key:
# [1] = test system: cell's response to insulin; settings: on administration of the chemical, estimated
# [2] = very high glucose levels
substance,measurement,setting,value
methylhydroxy chalcone polymer [MHCP],rise of sensitivity to insulin,[1],around 20 fold
same,glucose levels in diabetic mice,[2],could normalise very high glucose levels
